Data: ChEMBL document CHEMBL5532675, “Discovery of 4-Ethoxy-6-chloro-5-azaindazoles as Novel PDE4 Inhibitors for the Treatment of Alcohol Use Disorder and Alcoholic Liver Diseases” (J Med Chem, 2024)
The source made the active and inactive calls. No cut-off for these calls is given here.

Assays:
[1] = Clearance in Sprague-Dawley rat at 2 mg/kg, iv measured after 24 hrs by LC-MS analysis; type: ADME, organism-based; conditions: in vivo
[2] = Drug concentration in Sprague-Dawley rat liver at 10 mg/kg, po administered as single dose for 2 hrs by LC-MS analysis; type: ADME, organism-based; conditions: read-out: Ct
[3] = Selectivity ratio for inhibition of PDE7A (unknown origin) using FAM-cyclic-3',5'-AMP as substrate to inhibition of PDE4D7 (unknown origin) using FAM-cyclic-3',5'-AMP as substrate
[4] = Selectivity ratio for inhibition of PDE8A1 (unknown origin) using FAM-cyclic-3',5'-AMP as substrate to inhibition of PDE4B1 (unknown origin) using FAM-cyclic-3',5'-AMP as substrate
[5] = Chemical stability of compound in aqueous solution at pH >10 measured after 48 hrs; type: physicochemical; conditions: buffer
[6] = molecular target: T1, 3',5'-cyclic-AMP phosphodiesterase 4D (Homo sapiens, UniProt Q08499); test: Inhibition of PDE4D7 (unknown origin) using FAM-cyclic-3',5'-AMP as substrate incubated for 1 hrs by fluorescence polarization based IMAP assay
T1 sequence (Q08499 whole entry): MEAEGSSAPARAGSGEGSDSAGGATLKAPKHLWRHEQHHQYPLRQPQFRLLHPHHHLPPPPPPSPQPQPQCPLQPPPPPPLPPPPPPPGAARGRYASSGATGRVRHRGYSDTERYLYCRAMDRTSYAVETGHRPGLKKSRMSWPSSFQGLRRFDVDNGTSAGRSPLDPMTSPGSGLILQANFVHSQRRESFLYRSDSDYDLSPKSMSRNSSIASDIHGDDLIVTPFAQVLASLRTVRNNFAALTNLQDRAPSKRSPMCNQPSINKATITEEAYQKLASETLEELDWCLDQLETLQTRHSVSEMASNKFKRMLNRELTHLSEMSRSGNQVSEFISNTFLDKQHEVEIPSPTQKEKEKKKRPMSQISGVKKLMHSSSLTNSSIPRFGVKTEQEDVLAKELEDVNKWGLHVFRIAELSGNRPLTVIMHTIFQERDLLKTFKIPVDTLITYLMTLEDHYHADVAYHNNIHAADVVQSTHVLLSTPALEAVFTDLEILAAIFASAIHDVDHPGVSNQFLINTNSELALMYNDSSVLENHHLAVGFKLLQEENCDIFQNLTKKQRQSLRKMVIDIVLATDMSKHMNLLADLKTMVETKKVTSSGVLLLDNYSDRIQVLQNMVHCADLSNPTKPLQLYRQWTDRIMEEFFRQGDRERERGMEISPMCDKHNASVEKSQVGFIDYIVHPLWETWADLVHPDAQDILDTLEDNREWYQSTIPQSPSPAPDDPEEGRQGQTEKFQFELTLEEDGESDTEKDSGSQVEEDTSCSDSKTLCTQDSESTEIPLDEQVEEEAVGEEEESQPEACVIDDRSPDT

[7] = Drug concentration in Sprague-Dawley rat brain at 10 mg/kg, po administered as single dose for 2 hrs by LC-MS analysis; type: ADME, organism-based; conditions: read-out: Ct
HT-22 = test: Cytotoxicity against mouse HT-22 cells assessed as reduction in cell viability incubated for 48 hrs by MTT assay; type: toxicity, cell-based; conditions: ht-22, 48 h
Mus musculus [8] = test: (§1) Protection against alcohol-induced motor impairment in C57BL/6J mouse model assessed as short recovery time by measuring latency to falling off at 1 mg/kg, po preadministered with compound every 24 hrs for 3 times followed by alcohol administration 30 mins post last dose and further treated with compound for 3 days followed by alcohol administration 30 mins post last dose and measured at 2 to 20 mins by rotarod test; type: functional, organism-based; conditions: time 8702-8720 min
Mus musculus [9] = test: (§2) Protection against alcoholic liver disease in NIAAA C57BL/6J mouse model assessed as improvement of steatosis at 1 to 2.5 mg/kg, po preadministered with 1 to 4 % of alcohol for 10 days with subsequent compound addition from day 6 to 11 and further administered with 31.25 % alcohol on day 11 and measured after 9 hrs by H&E staining based light microscopic analysis; type: functional, organism-based; conditions: dose 1-2.5 mg/kg, time 5.0 day
Mus musculus [10] = test: as §2, with “decrease in serum ALT level” for “improvement of steatosis”, “absorbance” for “H&E staining”, “plate analyzer” for “light microscopic analysis”; type: functional, organism-based; conditions: dose 1-2.5 mg/kg, time 5.0 day
[11] = Cmax in Sprague-Dawley rat at 2 mg/kg, iv measured after 24 hrs by LC-MS analysis; type: ADME, organism-based; conditions: in vivo
[12] = Drug concentration in Sprague-Dawley rat plasma at 10 mg/kg, po administered as single dose for 2 hrs by LC-MS analysis; type: ADME, organism-based
Mus musculus [13] = test: as §1, with “2.5” for “1”; type: functional, organism-based; conditions: time 8702-8720 min
Mus musculus [14] = test: as §1, with “increase in distance travelled” for “short recovery time by measuring latency to falling off”, “1 to 2.5” for “1”, “open field” for “rotarod”; type: functional, organism-based; conditions: dose 1-2.5 mg/kg, time 8702-8720 min
[15] = Half-life in Sprague-Dawley rat at 10 mg/kg, po measured after 24 hrs by LC-MS analysis; type: ADME, organism-based; conditions: in vivo
Mus musculus [16] = test: as §2, with “liver injury” for “steatosis”, “Oil Red O” for “H&E”; type: functional, organism-based; conditions: dose 1-2.5 mg/kg, time 5.0 day
Mus musculus [17] = test: as §2, with “reduction in liver TNF-alpha mRNA level” for “improvement of steatosis”, “RT-qPCR” for “H&E staining based light microscopic”; type: functional, organism-based; conditions: dose 1-2.5 mg/kg, time 5.0 day
[18] = molecular target: High affinity cGMP-specific 3',5'-cyclic phosphodiesterase 9A (Homo sapiens) (UniProt O76083); test: Inhibition of PDE9A (unknown origin) using FAM-cyclic-3',5'-AMP as substrate at 10 uM incubated for 1 hrs by fluorescence polarization based IMAP assay relative to control
High affinity cGMP-specific 3',5'-cyclic phosphodiesterase 9A (Homo sapiens), sequence (O76083 whole entry): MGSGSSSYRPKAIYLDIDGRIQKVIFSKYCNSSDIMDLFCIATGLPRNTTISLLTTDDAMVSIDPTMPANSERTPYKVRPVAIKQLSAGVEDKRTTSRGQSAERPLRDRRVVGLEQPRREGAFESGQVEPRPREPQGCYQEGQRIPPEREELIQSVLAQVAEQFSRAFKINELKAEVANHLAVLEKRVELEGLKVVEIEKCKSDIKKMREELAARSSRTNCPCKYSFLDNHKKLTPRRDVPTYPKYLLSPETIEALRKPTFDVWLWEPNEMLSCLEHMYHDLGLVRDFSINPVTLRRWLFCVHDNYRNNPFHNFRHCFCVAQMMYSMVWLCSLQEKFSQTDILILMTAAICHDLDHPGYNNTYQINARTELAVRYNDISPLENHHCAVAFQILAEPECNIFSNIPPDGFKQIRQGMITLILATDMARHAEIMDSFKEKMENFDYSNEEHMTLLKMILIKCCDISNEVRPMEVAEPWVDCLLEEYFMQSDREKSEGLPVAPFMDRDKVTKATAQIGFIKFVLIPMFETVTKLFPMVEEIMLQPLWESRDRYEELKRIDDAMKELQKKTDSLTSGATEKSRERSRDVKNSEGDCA

[19] = Acute toxicity in C57BL/6J mouse assessed as poisoning symptoms at 1 g/Kg, po administered for 14 days; type: organism-based; conditions: in vivo, 1000 mg/kg, 336 h, time 14 day
[20] = molecular target: 3',5'-cyclic-AMP phosphodiesterase 4B (Homo sapiens, UniProt Q07343); test: Inhibition of PDE4B1 (unknown origin) using FAM-cyclic-3',5'-AMP as substrate incubated for 1 hrs by fluorescence polarization based IMAP assay
3',5'-cyclic-AMP phosphodiesterase 4B, sequence (Q07343 whole entry): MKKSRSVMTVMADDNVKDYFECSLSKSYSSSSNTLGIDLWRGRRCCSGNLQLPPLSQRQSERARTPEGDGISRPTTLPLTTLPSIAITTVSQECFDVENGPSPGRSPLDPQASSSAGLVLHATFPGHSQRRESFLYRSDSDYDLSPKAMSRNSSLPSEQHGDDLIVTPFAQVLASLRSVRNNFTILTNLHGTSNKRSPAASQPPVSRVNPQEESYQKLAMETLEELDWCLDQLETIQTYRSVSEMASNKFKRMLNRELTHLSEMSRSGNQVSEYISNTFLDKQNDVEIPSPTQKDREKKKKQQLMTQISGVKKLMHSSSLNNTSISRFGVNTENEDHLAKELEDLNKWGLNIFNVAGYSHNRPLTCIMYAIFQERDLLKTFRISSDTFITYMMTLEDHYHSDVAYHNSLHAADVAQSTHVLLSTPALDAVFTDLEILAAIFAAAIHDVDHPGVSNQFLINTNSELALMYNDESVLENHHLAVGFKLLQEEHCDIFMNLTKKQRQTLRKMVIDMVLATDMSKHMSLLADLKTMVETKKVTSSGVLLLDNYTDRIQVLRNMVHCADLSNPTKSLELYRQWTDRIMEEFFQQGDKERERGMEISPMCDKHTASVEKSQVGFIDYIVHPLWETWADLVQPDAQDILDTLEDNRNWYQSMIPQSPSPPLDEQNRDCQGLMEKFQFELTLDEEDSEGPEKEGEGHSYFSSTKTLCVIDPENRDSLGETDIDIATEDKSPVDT

[21] = Drug concentration in Sprague-Dawley rat plasma at 10 mg/kg, po administered as single dose for 1 hrs by LC-MS analysis; type: ADME, organism-based
[22] = Selectivity ratio for inhibition of PDE3B (unknown origin) using FAM-cyclic-3',5'-AMP as substrate to inhibition of PDE4D7 (unknown origin) using FAM-cyclic-3',5'-AMP as substrate
Mus musculus [23] = test: as §2, with “reduction in liver IL-1beta mRNA level” for “improvement of steatosis”, “RT-qPCR” for “H&E staining based light microscopic”; type: functional, organism-based; conditions: dose 1-2.5 mg/kg, time 5.0 day
Mus musculus [24] = test: as §2, with “reduction in serum TNF-alpha level” for “improvement of steatosis”, “ELISA” for “H&E staining based light microscopic analysis”; type: functional, organism-based; conditions: dose 1-2.5 mg/kg, time 5.0 day
[25] = Drug concentration in Sprague-Dawley rat liver at 10 mg/kg, po administered as single dose for 1 hrs by LC-MS analysis; type: ADME, organism-based; conditions: read-out: Ct
Mus musculus [26] = test: as §1, with “as” for “as short”, “of average speed” for “time by measuring latency to falling off”, “1 to 2.5” for “1”, “open field” for “rotarod”; type: functional, organism-based; conditions: dose 1-2.5 mg/kg, time 8702-8720 min
[27] = molecular target: T1, 3',5'-cyclic-AMP phosphodiesterase 4D; test: Inhibition of PDE4D7 (unknown origin) using FAM-cyclic-3',5'-AMP as substrate at 10 nM incubated for 1 hrs by fluorescence polarization based IMAP assay relative to control
[28] = molecular target: T1, 3',5'-cyclic-AMP phosphodiesterase 4D; test: Inhibition of PDE4D7 (unknown origin) using FAM-cyclic-3',5'-AMP as substrate at 100 nM incubated for 1 hrs by fluorescence polarization based IMAP assay relative to control
[29] = Cmax in Sprague-Dawley rat at 10 mg/kg, po measured after 24 hrs by LC-MS analysis; type: ADME, organism-based; conditions: in vivo
[30] = molecular target: High affinity cAMP-specific and IBMX-insensitive 3',5'-cyclic phosphodiesterase 8A (Homo sapiens) (UniProt O60658); test: Inhibition of PDE8A1 (unknown origin) using FAM-cyclic-3',5'-AMP as substrate at 10 uM incubated for 1 hrs by fluorescence polarization based IMAP assay relative to control
High affinity cAMP-specific and IBMX-insensitive 3',5'-cyclic phosphodiesterase 8A (Homo sapiens), sequence (O60658 whole entry): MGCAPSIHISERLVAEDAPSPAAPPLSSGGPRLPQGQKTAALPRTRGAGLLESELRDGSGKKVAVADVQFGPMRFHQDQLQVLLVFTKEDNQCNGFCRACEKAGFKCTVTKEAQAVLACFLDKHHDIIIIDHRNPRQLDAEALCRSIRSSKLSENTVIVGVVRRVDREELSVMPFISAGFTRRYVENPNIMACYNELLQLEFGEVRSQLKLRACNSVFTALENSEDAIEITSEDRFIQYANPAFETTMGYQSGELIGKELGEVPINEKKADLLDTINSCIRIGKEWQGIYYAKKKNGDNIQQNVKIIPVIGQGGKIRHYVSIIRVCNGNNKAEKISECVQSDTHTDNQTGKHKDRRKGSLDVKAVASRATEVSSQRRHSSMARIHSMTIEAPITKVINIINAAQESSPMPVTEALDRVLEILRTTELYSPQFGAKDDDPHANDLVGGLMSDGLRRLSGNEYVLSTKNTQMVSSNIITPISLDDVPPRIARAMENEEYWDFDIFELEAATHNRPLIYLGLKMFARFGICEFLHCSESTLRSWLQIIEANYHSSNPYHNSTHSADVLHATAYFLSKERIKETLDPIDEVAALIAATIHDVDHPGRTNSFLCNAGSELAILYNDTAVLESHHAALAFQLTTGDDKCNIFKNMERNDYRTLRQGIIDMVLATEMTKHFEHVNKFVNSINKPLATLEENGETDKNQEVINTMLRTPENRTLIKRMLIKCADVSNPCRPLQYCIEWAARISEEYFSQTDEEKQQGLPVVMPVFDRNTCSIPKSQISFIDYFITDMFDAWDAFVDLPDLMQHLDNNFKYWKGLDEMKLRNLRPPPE

[31] = Selectivity ratio for inhibition of PDE9A (unknown origin) using FAM-cyclic-3',5'-AMP as substrate to inhibition of PDE4B1 (unknown origin) using FAM-cyclic-3',5'-AMP as substrate
[32] = AUC (0 to infinity) in Sprague-Dawley rat at 10 mg/kg, po measured after 24 hrs by LC-MS analysis; type: ADME, organism-based; conditions: in vivo
[33] = Drug concentration in Sprague-Dawley rat brain at 10 mg/kg, po administered as single dose for 1 hrs by LC-MS analysis; type: ADME, organism-based; conditions: read-out: Ct

## CCOc1nc(Cl)cc2c1cnn2CCCC(=O)O
[1]
  clearance: 0.211 mL/min/kg
[2]
  concentration at 2 h: 8120 ng/g
[3]
  Selectivity ratio: > 267
[4]
  Selectivity ratio: > 267
[5]
  Stability: Stable
[6]
  IC50: 37.4 nM
[7]
  concentration at 2 h: 441 ng/g
HT-22
  Activity: Non-Toxic
Mus musculus [8]
  Activity: inactive
Mus musculus [9]
  Activity: Active
Mus musculus [10]
  Activity: Active
[11]
  Cmax: 23200 ng/mL
[12]
  concentration at 2 h: 27000 ng/mL
Mus musculus [13]
  Activity: Active
Mus musculus [14]
  Activity: Active
[15]
  half-life: 9.3 h
Mus musculus [16]
  Activity: Active
Mus musculus [17]
  Activity: Active
[18]
  inhibition: 9%
[19]
  Activity: Non-Toxic
[20]
  IC50: 31 nM
[21]
  concentration at 1 h: 19500 ng/mL
[22]
  Selectivity ratio: > 267
Mus musculus [23]
  Activity: Active
Mus musculus [24]
  Activity: Active
[25]
  concentration at 1 h: 11200 ng/g
Mus musculus [26]
  Activity: Active
[27]
  inhibition: 21%
[28]
  inhibition: 72%
[29]
  Cmax: 43300 ng/mL
[30]
  inhibition: 9%
[31]
  Selectivity ratio: > 267
[32]
  AUC(0-inf): 828 µg·h/mL
[33]
  concentration at 1 h: 322 ng/g
